Experimental data published in paper PMC10044120, “Potent and selective covalent inhibition of the papain-like protease from SARS-CoV-2” (Nature Communications, 2023).
Like-named read-outs stand apart in the source and are kept apart here.

Columns and labels:
Vero E6 cells = details: African green monkey, 48 h
PLpro from SARS-CoV-2 [1] = biological target: T1, PLpro from SARS-CoV-2 (Severe acute respiratory syndrome coronavirus 2, UniProt P0DTD1); test: biochemical; type: biochemical; details: for remaining activity at 0.06 µM: inhibitor 0.06 uM; for remaining activity at 0.2 µM: inhibitor 0.20 uM; for IC50: after 30-min incubation, purified PLpro, Z-RLRGG-AMC substrate
in vitro = details: African green monkey
PLpro from SARS-CoV-2 [2] = biological target: T1, PLpro from SARS-CoV-2; test: biochemical; type: biochemical; set-up: mean (kobs plot, Supplementary Figure 6 II): unit: min^-1; details: for Time dep. (time-dependent inhibition): fluorogenic peptide assay, varied preincubation time
[3] = test system: SARS-CoV-2 isolate USA-WA1/2020; test: microbe, parasite or virus in culture
[4] = test system: SARS-CoV-2 isolate USA-WA1/2020; details: for EC50 (cytopathic effect): SARS-CoV-2-infected Vero E6 cells, 48 h; for inhibition: read-out: cytopathic effect, % cell viability, duplicate wells
[5] = Metabolic stability in mouse liver S9 fraction; details: CD-1, mouse
[6] = Metabolic stability in rat liver S9 fraction; details: Sprague-Dawley
[7] = Metabolic stability in rat liver microsomes; details: Sprague-Dawley
[8] = Metabolic stability in mouse liver microsomes; details: CD-1, mouse

C#CC(=O)NNC(=O)CCc1ccccc1C(=O)N[C@H](C)c1cccc2ccccc12 [Compound 12, (R)-N-(1-(naphthalen-1-yl)ethyl)-2-(3-oxo-3-(2-propioloylhydrazineyl)propyl)benzamide]
cytotoxicity, %cell viability (Vero E6 cells; 16.67 µM): 0.55%
cytotoxicity, %cell viability (Vero E6 cells; 33.33 µM): 0.51%
remaining activity at 0.06 µM (PLpro from SARS-CoV-2 [1]; 0.5 h): 75.9%
remaining activity at 0.2 µM (PLpro from SARS-CoV-2 [1]; 0.5 h): 14.8%
remaining activity at 200 µM (PLpro from SARS-CoV-2 [1]; 0.5 h, inhibitor 200.00 uM): 2.39%
IC50 (PLpro from SARS-CoV-2 [1]): 0.098 µM
CC50 at 48 h (in vitro; CC50): 1 to 5 µM
viability at 48 h, 8.33 µM (in vitro; cytotoxicity, %cell viability): 0.83%
viability at 48 h, 16.67 µM (in vitro; cytotoxicity, %cell viability): 0.57%
viability at 48 h, 33.33 µM (in vitro; cytotoxicity, %cell viability): 1.02%
kinact/KI (PLpro from SARS-CoV-2 [2]): 4100 M⁻¹ s⁻¹
remaining activity at 0.2 µM (PLpro from SARS-CoV-2 [2]; 5 min, read-out: PLpro activity after preincubation, inhibitor 0.2 uM, preincubation 5 min): 80%
remaining activity at 0.5 µM (PLpro from SARS-CoV-2 [2]; 5 min, read-out: PLpro activity after preincubation, inhibitor 0.5 uM, preincubation 5 min): 68.1%
remaining activity at 0.6 µM (PLpro from SARS-CoV-2 [2]; 5 min, read-out: PLpro activity after preincubation, inhibitor 0.6 uM, preincubation 5 min): 59%
remaining activity at 0.7 µM (PLpro from SARS-CoV-2 [2]; 5 min, read-out: PLpro activity after preincubation, inhibitor 0.7 uM, preincubation 5 min): 46.3%
remaining activity at 0.2 µM (PLpro from SARS-CoV-2 [2]; 10 min, read-out: PLpro activity after preincubation, inhibitor 0.2 uM, preincubation 10 min): 69.8%
remaining activity at 0.5 µM (PLpro from SARS-CoV-2 [2]; 10 min, read-out: PLpro activity after preincubation, inhibitor 0.5 uM, preincubation 10 min): 40.2%
remaining activity at 0.6 µM (PLpro from SARS-CoV-2 [2]; 10 min, read-out: PLpro activity after preincubation, inhibitor 0.6 uM, preincubation 10 min): 41.8%
remaining activity at 0.7 µM (PLpro from SARS-CoV-2 [2]; 10 min, read-out: PLpro activity after preincubation, inhibitor 0.7 uM, preincubation 10 min): 29.5%
remaining activity at 0.2 µM (PLpro from SARS-CoV-2 [2]; 0.5 h, read-out: PLpro activity after preincubation, inhibitor 0.2 uM, preincubation 30 min): 87.5%
remaining activity at 0.3 µM (PLpro from SARS-CoV-2 [2]; 0.5 h, read-out: PLpro activity after preincubation, inhibitor 0.3 uM, preincubation 30 min): 71%
remaining activity at 0.5 µM (PLpro from SARS-CoV-2 [2]; 0.5 h, read-out: PLpro activity after preincubation, inhibitor 0.5 uM, preincubation 30 min): 14.4%
remaining activity at 0.7 µM (PLpro from SARS-CoV-2 [2]; 0.5 h, read-out: PLpro activity after preincubation, inhibitor 0.7 uM, preincubation 30 min): 7.89%
remaining activity at 0.2 µM (PLpro from SARS-CoV-2 [2]; 1 h, read-out: PLpro activity after preincubation, inhibitor 0.2 uM, preincubation 60 min): 83.5%
remaining activity at 0.6 µM (PLpro from SARS-CoV-2 [2]; 1 h, read-out: PLpro activity after preincubation, inhibitor 0.6 uM, preincubation 60 min): 2.72%
remaining activity at 0.2 µM (PLpro from SARS-CoV-2 [2]; […], read-out: PLpro activity after preincubation, inhibitor 0.2 uM, preincubation 15 min): 82%
remaining activity at 0.2 µM (PLpro from SARS-CoV-2 [2]; […], read-out: PLpro activity after preincubation, inhibitor 0.2 uM, preincubation 45 min): 75.3%
remaining activity at 0.2 µM (PLpro from SARS-CoV-2 [2]; […], read-out: PLpro activity after preincubation, inhibitor 0.2 uM, preincubation 90 min): 60%
remaining activity at 0.3 µM (PLpro from SARS-CoV-2 [2]; […], read-out: PLpro activity after preincubation, inhibitor 0.3 uM, preincubation 90 min): 15.6%
remaining activity at 0.5 µM (PLpro from SARS-CoV-2 [2]; […], read-out: PLpro activity after preincubation, inhibitor 0.5 uM, preincubation 15 min): 34.6%
remaining activity at 0.5 µM (PLpro from SARS-CoV-2 [2]; […], read-out: PLpro activity after preincubation, inhibitor 0.5 uM, preincubation 45 min): 1.63%
remaining activity at 0.6 µM (PLpro from SARS-CoV-2 [2]; […], read-out: PLpro activity after preincubation, inhibitor 0.6 uM, preincubation 15 min): 27.5%
remaining activity at 0.7 µM (PLpro from SARS-CoV-2 [2]; […], read-out: PLpro activity after preincubation, inhibitor 0.7 uM, preincubation 15 min): 17.8%
Time dep. (time-dependent inhibition) (PLpro from SARS-CoV-2 [2]): Time-dependent inhibition was observed and Yes
mean (kobs plot, Supplementary Figure 6 II) (PLpro from SARS-CoV-2 [2]; inhibitor 0.20 uM): 0.0069
mean (kobs plot, Supplementary Figure 6 II) (PLpro from SARS-CoV-2 [2]; inhibitor 0.30 uM): 0.0173
mean (kobs plot, Supplementary Figure 6 II) (PLpro from SARS-CoV-2 [2]; inhibitor 0.5 uM): 0.0760
mean (kobs plot, Supplementary Figure 6 II) (PLpro from SARS-CoV-2 [2]; inhibitor 0.6 uM): 0.0965
mean (kobs plot, Supplementary Figure 6 II) (PLpro from SARS-CoV-2 [2]; inhibitor 0.7 uM): 0.1287
inhibition at […] ([3]; Severe acute respiratory syndrome coronavirus 2, Vero C1008, read-out: cytopathic effect, % cell viability): 6.23%
EC50 (cytopathic effect) [4]: No CPE

C[C@@H](NC(=O)c1ccccc1CCC(=O)NNC(=O)C(C#N)=CC1CC1)c1cccc2ccccc12 [Compound 13, (R)-2-(3-(2-(2-cyano-3-cyclopropylacryloyl)hydrazineyl)-3-oxopropyl)-N-(1-(naphthalen-1-yl)ethyl)benzamide]
cytotoxicity, %cell viability (Vero E6 cells; 2.08 µM): 72.90%
cytotoxicity, %cell viability (Vero E6 cells; 16.67 µM): 0.71%
remaining activity at 0.06 µM (PLpro from SARS-CoV-2 [1]; 0.5 h): 101%
remaining activity at 0.2 µM (PLpro from SARS-CoV-2 [1]; 0.5 h): 107%
remaining activity at 6.34 µM (PLpro from SARS-CoV-2 [1]; 0.5 h, inhibitor 6.34 uM): 109%
remaining activity at 20 µM (PLpro from SARS-CoV-2 [1]; 0.5 h, inhibitor 20.00 uM): 90.5%
IC50 (PLpro from SARS-CoV-2 [1]): > 200 µM
viability at 48 h, 2.08 µM (in vitro; cytotoxicity, %cell viability): 83.5%
viability at 48 h, 16.67 µM (in vitro; cytotoxicity, %cell viability): 0.88%
Time dep. (time-dependent inhibition) (PLpro from SARS-CoV-2 [2]): not and No
EC50 (cytopathic effect) [4]: No CPE

CC(C)NCC(O)COc1cccc2ccccc12 (centres unmarked) [propranolol, reference compound]
half-life [5]: 6 min
half-life [6]: 3 min
half-life [7]: 3 min
half-life [8]: 20 min

CCC(CC)COC(=O)[C@H](C)N[P@](=O)(OC[C@H]1O[C@@](C#N)(c2ccc3c(N)ncnn23)[C@H](O)[C@@H]1O)Oc1ccccc1 [remdesivir, reference compound]
EC50 ([3]; Severe acute respiratory syndrome coronavirus 2, Vero C1008, 48 h, read-out: EC50 (cytopathic effect)): 0.74 µM
viability at 5 µM ([3]; Severe acute respiratory syndrome coronavirus 2, Vero C1008, read-out: % cell viability, cytopathic effect, 5.00 uM): 102%
viability at 10 µM ([3]; Severe acute respiratory syndrome coronavirus 2, Vero C1008, read-out: % cell viability, cytopathic effect, 10.00 uM): 101%
inhibition at 5 µM ([3]; Severe acute respiratory syndrome coronavirus 2, Vero C1008, read-out: cytopathic effect, % cell viability, [inhibitor] 5.00 uM, duplicate wells): 102%
inhibition at 10 µM ([3]; Severe acute respiratory syndrome coronavirus 2, Vero C1008, read-out: cytopathic effect, % cell viability, [inhibitor] 10.00 uM, duplicate wells): 101%
% cell viability, cytopathic effect ([4]; 5.00 uM): 97.274%
% cell viability, cytopathic effect ([4]; 10.00 uM): 97.073%
inhibition ([4]; [inhibitor] 5.00 uM, 5 µM): 97.3%
inhibition ([4]; [inhibitor] 10.00 uM, 10 µM): 97.1%
